Where “and” joins values, the source holds several entries; their conditions need not be identical. Equal values may be shown once. Inconclusive results and toxic doses are left out.
System: BDF1 mice, P815 leukemia ip, survival T/C
Assay: NCI In Vivo Anticancer Drug Screen. Data for tumor model P815 Mast Cell Leukemia (Ascitic) (intraperitoneal) in B6D2F1 (BDF1) mice
Conditions: higher = longer survival
Protocol: The antitumor activity of compounds was measured in mice bearing transplantable tumors. Survival or tumor size were measured and the results are expressed as the measurement made in the treated group (T) divided by the measurement made in the vehicle treated control group (C). The tumor model used in this assay is P815 Mast Cell Leukemia (Ascitic) (intraperitoneal) in B6D2F1 (BDF1) mice

[1] = endpoint: survival time, mean or median, dose: 16.0 mg/kg/injection, schedule: Q01DX010 (ip), vehicle: saline
[2] = endpoint: survival time, mean or median, dose: 5.0 mg/kg/injection, schedule: Q01DX010 (ip), vehicle: saline
[3] = endpoint: survival time, mean or median, dose: 10.0 mg/kg/injection, schedule: Q01DX010 (ip), vehicle: saline
[4] = endpoint: survival time, mean or median, dose: 20.0 mg/kg/injection, schedule: Q01DX010 (ip), vehicle: saline
[5] = endpoint: survival time, mean or median, dose: 40.0 mg/kg/injection, schedule: Q01DX010 (ip), vehicle: saline
[6] = endpoint: survival time, mean or median, dose: 1.0 mg/kg/injection, schedule: Q01DX015 (ip), vehicle: carboxymethylcellulose (CMC)
[7] = endpoint: survival time, mean or median, dose: 3.0 mg/kg/injection, schedule: Q01DX010 (ip), vehicle: saline
[8] = endpoint: survival time, mean or median, dose: 6.0 mg/kg/injection, schedule: Q01DX010 (ip), vehicle: saline
[9] = endpoint: survival time, mean or median, dose: 12.0 mg/kg/injection, schedule: Q01DX010 (ip), vehicle: saline
[10] = endpoint: survival time, mean or median, dose: 2.0 mg/kg/injection, schedule: Q01DX010 (ip), vehicle: saline
[11] = endpoint: survival time, mean or median, dose: 4.0 mg/kg/injection, schedule: Q01DX010 (ip), vehicle: saline
[12] = endpoint: survival time, mean or median, dose: 8.0 mg/kg/injection, schedule: Q01DX010 (ip), vehicle: saline
[13] = endpoint: survival time, mean or median, dose: 12.5 mg/kg/injection, schedule: Q01DX010 (ip), vehicle: saline
[14] = endpoint: survival time, mean or median, dose: 10.0 mg/kg/injection, schedule: Q01DX015 (ip), vehicle: carboxymethylcellulose (CMC)
[15] = endpoint: survival time, mean or median, dose: 20.0 mg/kg/injection, schedule: Q01DX015 (ip), vehicle: carboxymethylcellulose (CMC)
[16] = endpoint: survival time, mean or median, dose: 27.0 mg/kg/injection, schedule: Q01DX010 (ip), vehicle: saline
[17] = endpoint: survival time, mean or median, dose: 62.5 mg/kg/injection, schedule: Q01DX010 (ip), vehicle: saline
[18] = endpoint: survival time, mean or median, dose: 18.0 mg/kg/injection, schedule: Q01DX010 (ip), vehicle: saline

## CCCCn1cnc2c(=S)nc[nH]c21
[1]
  T/C: 105 % of control
endpoint: survival time, mean or median, dose: 32.0 mg/kg/injection, schedule: Q01DX010 (ip), vehicle: saline
  T/C: 100 % of control
endpoint: survival time, mean or median, dose: 64.0 mg/kg/injection, schedule: Q01DX010 (ip), vehicle: saline
  T/C: 111 % of control
endpoint: survival time, mean or median, dose: 128.0 mg/kg/injection, schedule: Q01DX010 (ip), vehicle: saline
  T/C: 105 % of control

## NOCc1cscn1
endpoint: median survival time, dose: 25.0 mg/kg/injection, schedule: Q01DX010 (ip), vehicle: saline sonified
  T/C: 87 % of control
endpoint: median survival time, dose: 50.0 mg/kg/injection, schedule: Q01DX010 (ip), vehicle: saline sonified
  T/C: 100 % of control

## Cc1cc(N(CCCl)CCCl)ccc1N=Nc1ccccc1C(=O)O
[2]
  T/C: 105 % of control and 111 % of control
[3]
  T/C: 105 % of control and 111 % of control
[4]
  T/C: 111 % of control
[5]
  T/C: 88 % of control

## N[C@@H](Cc1ccc(N(CCCl)CCCl)cc1)C(=O)O
[6]
  T/C: 231 % of control
endpoint: survival time, mean or median, dose: 2.0 mg/kg/injection, schedule: Q01DX015 (ip), vehicle: carboxymethylcellulose (CMC)
  T/C: 257 % of control
endpoint: survival time, mean or median, dose: 4.0 mg/kg/injection, schedule: Q01DX015 (ip), vehicle: carboxymethylcellulose (CMC)
  T/C: 182 % of control and 195 % of control
endpoint: survival time, mean or median, dose: 8.0 mg/kg/injection, schedule: Q01DX015 (ip), vehicle: carboxymethylcellulose (CMC)
  T/C: 103 % of control

## N=C(N)c1ccc(Nc2ccc(C(=N)N)cc2)cc1
[7]
  T/C: 94 % of control and 100 % of control
[8]
  T/C: 100 % of control
[9]
  T/C: 88 % of control and 100 % of control
endpoint: survival time, mean or median, dose: 24.0 mg/kg/injection, schedule: Q01DX010 (ip), vehicle: saline
  T/C: 87 % of control

## O=c1cnn(C2OC(CO)C(O)C2O)c(=O)[nH]1 (stereo unspecified)
endpoint: survival time, mean or median, dose: 800.0 mg/kg/injection, schedule: Q01DX010 (ip), vehicle: saline
  T/C: 111 % of control
endpoint: survival time, mean or median, dose: 1600.0 mg/kg/injection, schedule: Q01DX010 (ip), vehicle: saline
  T/C: 100 % of control

## CC(CCC(C)OS(C)(=O)=O)OS(C)(=O)=O (stereo unspecified)
[10]
  T/C: 100 % of control
[11]
  T/C: 100 % of control and 105 % of control
[12]
  T/C: 100 % of control and 105 % of control
[1]
  T/C: 120 % of control

## CC(=O)NC1=C(N2CC2)C(=O)C(NC(C)=O)=C(N2CC2)C1=O
endpoint: survival time, mean or median, dose: 0.5 mg/kg/injection, schedule: Q01DX015 (ip), vehicle: carboxymethylcellulose (CMC)
  T/C: 203 % of control
[6]
  T/C: 103 % of control

## Nc1ncnc2[nH]ncc12
endpoint: survival time, mean or median, dose: 1.5 mg/kg/injection, schedule: Q01DX010 (ip), vehicle: saline
  T/C: 100 % of control
[7]
  T/C: 100 % of control
[8]
  T/C: 100 % of control and 104 % of control
[9]
  T/C: 100 % of control and 109 % of control

## O=C(O)CCCc1ccc(N(CCCl)CCCl)cc1
endpoint: survival time, mean or median, dose: 3.13 mg/kg/injection, schedule: Q01DX010 (ip), vehicle: saline
  T/C: 100 % of control
endpoint: survival time, mean or median, dose: 6.25 mg/kg/injection, schedule: Q01DX010 (ip), vehicle: saline
  T/C: 105 % of control
[13]
  T/C: 122 % of control

## O=C(O)c1[nH]c(=O)[nH]c(=O)c1F
endpoint: survival time, mean or median, dose: 13.0 mg/kg/injection, schedule: Q01DX015 (ip), vehicle: carboxymethylcellulose (CMC)
  T/C: 86 % of control

## NC(Cc1ccc(N(CCCl)CCCl)cc1)C(=O)O (stereo unspecified)
endpoint: survival time, mean or median, dose: 4.0 mg/kg/injection, schedule: Q01DX010 (ip), vehicle: other
  T/C: 120 % of control
endpoint: survival time, mean or median, dose: 8.0 mg/kg/injection, schedule: Q01DX010 (ip), vehicle: other
  T/C: 100 % of control

## CCCCN(CCCC)CCCCCN
endpoint: survival time, mean or median, dose: 5.0 mg/kg/injection, schedule: Q01DX015 (ip), vehicle: carboxymethylcellulose (CMC)
  T/C: 111 % of control
[14]
  T/C: 103 % of control
[15]
  T/C: 104 % of control
endpoint: survival time, mean or median, dose: 30.0 mg/kg/injection, schedule: Q01DX015 (ip), vehicle: carboxymethylcellulose (CMC)
  T/C: 105 % of control

## COS(C)(=O)=O
[13]
  T/C: 100 % of control
endpoint: survival time, mean or median, dose: 25.0 mg/kg/injection, schedule: Q01DX010 (ip), vehicle: saline
  T/C: 100 % of control
endpoint: survival time, mean or median, dose: 50.0 mg/kg/injection, schedule: Q01DX010 (ip), vehicle: saline
  T/C: 100 % of control

## O=C(Nc1cccc(NC(=O)Nc2cccc(C3=NCCN3)c2)c1)Nc1cccc(C2=NCCN2)c1
[16]
  T/C: 121 % of control
[5]
  T/C: 117 % of control
endpoint: survival time, mean or median, dose: 66.0 mg/kg/injection, schedule: Q01DX010 (ip), vehicle: saline
  T/C: 113 % of control
endpoint: survival time, mean or median, dose: 90.0 mg/kg/injection, schedule: Q01DX010 (ip), vehicle: saline
  T/C: 86 % of control

## CCCSc1ncnc2nc[nH]c12
endpoint: survival time, mean or median, dose: 31.3 mg/kg/injection, schedule: Q01DX010 (ip), vehicle: saline
  T/C: 100 % of control and 111 % of control
[17]
  T/C: 111 % of control
endpoint: survival time, mean or median, dose: 125.0 mg/kg/injection, schedule: Q01DX010 (ip), vehicle: saline
  T/C: 111 % of control and 122 % of control

## CCCCNc1ncnc2c1cnn2C
endpoint: survival time, mean or median, dose: 31.25 mg/kg/injection, schedule: Q01DX010 (ip), vehicle: saline
  T/C: 95 % of control and 100 % of control
[17]
  T/C: 108 % of control

## CN=C(NC)c1ccc(NC(=O)c2ccc(C(=O)Nc3ccc(C(=NC)NC)cc3)c(Cl)c2)cc1
[18]
  T/C: 91 % of control
[16]
  T/C: 100 % of control

## Nc1nc(F)nc2c1ncn2C1OC(CO)C(O)C1O (stereo unspecified)
endpoint: survival time, mean or median, dose: 0.5 mg/kg/injection, schedule: Q01DX010 (ip), vehicle: saline
  T/C: 100 % of control
endpoint: survival time, mean or median, dose: 0.75 mg/kg/injection, schedule: Q01DX015 (ip), vehicle: saline
  T/C: 99 % of control
endpoint: survival time, mean or median, dose: 1.0 mg/kg/injection, schedule: Q01DX010 (ip), vehicle: saline
  T/C: 100 % of control and 112 % of control
endpoint: survival time, mean or median, dose: 1.5 mg/kg/injection, schedule: Q01DX015 (ip), vehicle: saline
  T/C: 98 % of control
[10]
  T/C: 100 % of control and 112 % of control
[11]
  T/C: 100 % of control and 112 % of control
[12]
  T/C: 88 % of control

## C[C@@H]1C[C@@H]([C@H](O)CC2CC(=O)NC(=O)C2)C(=O)[C@@H](C)C1
[2]
  T/C: 109 % of control and 118 % of control
[3]
  T/C: 104 % of control and 109 % of control
[4]
  T/C: 109 % of control and 118 % of control
[5]
  T/C: 118 % of control

## COc1cc([C@@H]2c3cc4c(cc3[C@H](O)[C@H]3COC(=O)[C@@H]23)OCO4)cc(OC)c1OC
[14]
  T/C: 112 % of control
[15]
  T/C: 150 % of control
endpoint: survival time, mean or median, dose: 40.0 mg/kg/injection, schedule: Q01DX015 (ip), vehicle: carboxymethylcellulose (CMC)
  T/C: 167 % of control

## O=C(Nc1ccc(C2=NCCN2)cc1)c1ccc(C(=O)Nc2ccc(C3=NCCN3)cc2)c([N+](=O)[O-])c1
[8]
  T/C: 171 % of control
[12]
  T/C: 284 % of control
[9]
  T/C: 92 % of control

## Nc1ccc(OC(=O)Oc2ccc(N)cc2)cc1
endpoint: survival time, mean or median, dose: 25.0 mg/kg/injection, schedule: Q01DX015 (ip), vehicle: saline
  T/C: 97 % of control
endpoint: survival time, mean or median, dose: 50.0 mg/kg/injection, schedule: Q01DX015 (ip), vehicle: saline
  T/C: 102 % of control
endpoint: survival time, mean or median, dose: 100.0 mg/kg/injection, schedule: Q01DX015 (ip), vehicle: saline
  T/C: 108 % of control
endpoint: survival time, mean or median, dose: 200.0 mg/kg/injection, schedule: Q01DX015 (ip), vehicle: saline
  T/C: 104 % of control

## CCCNC(=NC)c1ccc(NC(=O)c2ccc(C(=O)Nc3ccc(C(=NC)NCCC)cc3)cc2)cc1
endpoint: survival time, mean or median, dose: 5.2 mg/kg/injection, schedule: Q01DX010 (ip), vehicle: saline
  T/C: 121 % of control
[12]
  T/C: 121 % of control
[9]
  T/C: 121 % of control
[18]
  T/C: 100 % of control

## C[C@H](N)C(=O)N[C@@H]1[C@H]2C(=C(O)C[C@@H](O)[C@@H]2O)C(=O)O[C@@H]1C
endpoint: survival time, mean or median, dose: 150.0 mg/kg/injection, schedule: Q01DX010 (ip), vehicle: saline
  T/C: 122 % of control
endpoint: survival time, mean or median, dose: 1200.0 mg/kg/injection, schedule: Q01DX010 (ip), vehicle: saline
  T/C: 183 % of control
